Test systems include HOP-92; EKVX; NCI-H522; NCI-H226; TK-10; SK-OV-3; LOX IMVI; NCI-H23; SF-295; A549; MDA-MB-435; SN12C; SNB-19; 786-0; HCT-15; SR; HL-60; SW-620; MOLT-4; SK-MEL-2.
What all share (test): NCI tumour cell line growth inhibition, 48 h

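Compound exposure: 48 hours, 5 concentrations, 96-well plates. GI50: concentration for 50% inhibition of growth.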 Calls of active or inactive are those of the source. Cut-off read from the data, not from the text of the source: active = GI50 up to about 1.1 µM and inactive = higher.

Take `C=CC/C=C/Cc1csc(C(C)(C)C(O)C/C=C/C(=C)CCNC(=O)OC)n1` (stereo not given): the GI50 in the test on HOP-92 is 20.6 µM (inactive); in the test on EKVX, 27.9 µM (inactive); with NCI-H522, 19.1 µM (inactive); with NCI-H226, > 100 µM (inactive); with TK-10 it was > 100 µM (inactive); with SK-OV-3, > 85.3 µM (inactive). Further, the GI50 was 44.6 µM (inactive) with LOX IMVI; 0.245 µM (active) in the test with NCI-H23; 1.28 µM (inactive) with SF-295; 41.4 µM (inactive) in the test with A549; 49.7 µM (inactive) in the test on MDA-MB-435; > 100 µM (inactive) with SN12C. The GI50 with SNB-19 is > 100 µM (inactive); in the test on 786-0, > 100 µM (inactive); in the test on HCT-15 it was 44.1 µM; with SR, 0.492 µM (active); in the test with HL-60 it was 9.71 µM (inactive); with SW-620 it was 26.7 µM (inactive). Further, the GI50 in the test on MOLT-4 was 36.1 µM (inactive); in the test on SK-MEL-2, > 100 µM (inactive).
As to `N=C(N)NS(=O)(=O)c1ccc(NC(=O)c2cccc3c(NNc4ccc(S(=O)(=O)N=C(N)N)cc4)c4ccccc4nc23)cc1`, the GI50 with HOP-92 is 47.4 µM (inactive); with EKVX, 30.8 µM (inactive); in the test on NCI-H522, 25.6 µM (inactive); in the test with NCI-H226, 91.8 µM (inactive); in the test with TK-10, > 100 µM (inactive); in the test with SK-OV-3 it was > 100 µM (inactive). For the same molecule, the GI50 is 34.8 µM (inactive) in the test on LOX IMVI; 52.4 µM (inactive) in the test on NCI-H23; > 100 µM (inactive) in the test on SF-295; > 100 µM (inactive) in the test with A549; 42.3 µM (inactive) in the test with MDA-MB-435; > 100 µM (inactive) with SN12C. Besides, the GI50 with SNB-19 is 76.7 µM (inactive); in the test on 786-0 it was 44.2 µM (inactive); in the test on HCT-15, 37.8 µM; with SR, 32.6 µM (inactive); in the test with HL-60, 35.5 µM (inactive); in the test with SW-620, 48.9 µM (inactive). Further, the GI50 is 30.8 µM (inactive) in the test with MOLT-4 and 16.9 µM (inactive) in the test on SK-MEL-2.
On to `O=C(/C=C(\Nc1ccccc1O)c1ccc(Br)cc1)C(Cl)(Cl)Cl`, for which the GI50 was 2.6 µM (inactive) in the test with HOP-92; 3.21 µM (inactive) in the test on EKVX; 14.9 µM (inactive) with NCI-H522; 12.1 µM (inactive) with NCI-H226; 6.95 µM (inactive) in the test with TK-10; 1.07 µM (active) with SK-OV-3. Besides, the GI50 with LOX IMVI was 17.9 µM (inactive); in the test with NCI-H23, 12.6 µM (inactive); with SF-295 it was 6.12 µM (inactive); with A549, 2.75 µM (inactive); with MDA-MB-435, 8.89 µM (inactive); with SN12C, 7.67 µM (inactive). Moreover, the GI50 in the test on SNB-19 is 6.87 µM (inactive); with 786-0 it was 14.4 µM (inactive); in the test on HCT-15, 12.2 µM; in the test on SR, 13.7 µM (inactive); with HL-60 it was 2.36 µM (inactive); in the test with SW-620, 3.06 µM (inactive). The GI50 is 13.9 µM (inactive) in the test on MOLT-4 and 8.04 µM (inactive) in the test with SK-MEL-2.
For the molecule `CCc1n[nH]c(=O)n1N`, the GI50 in the test on HOP-92, in the test with EKVX, with NCI-H522, in the test on NCI-H226, in the test with TK-10 and with SK-OV-3 was > 100 µM (inactive) in each case. Also, the GI50 in the test on LOX IMVI, with NCI-H23, in the test on SF-295, with A549, with MDA-MB-435 and in the test on SN12C was > 100 µM (inactive) throughout. Further, the GI50 with SNB-19 was > 100 µM (inactive); in the test on 786-0, > 100 µM (inactive); in the test with HCT-15, > 100 µM; with SR, > 100 µM (inactive); in the test with HL-60 it was > 100 µM (inactive); with SW-620 it was > 100 µM (inactive). The GI50 with MOLT-4 and in the test on SK-MEL-2 was > 100 µM (inactive) throughout.
On to `COC(=O)C1OC(SCCN)C(O)C(O)C1O` (stereo not given), for which the GI50 in the test with HOP-92, in the test with EKVX, with NCI-H522, in the test on NCI-H226, in the test with TK-10 and with SK-OV-3 was > 100 µM (inactive) throughout. The GI50 in the test with LOX IMVI, in the test on NCI-H23, with SF-295, in the test on A549, with MDA-MB-435 and in the test with SN12C was > 100 µM (inactive) each time. Also, the GI50 in the test on SNB-19 was > 100 µM (inactive); in the test with 786-0, > 100 µM (inactive); in the test with HCT-15, > 100 µM; in the test with SR it was > 100 µM (inactive); with HL-60, > 100 µM (inactive); in the test on SW-620, > 100 µM (inactive). The GI50 with MOLT-4 and in the test with SK-MEL-2 was > 100 µM (inactive) each time.
Turning to `CCOC1Oc2ccccc2-c2nc(SC)ncc21` (stereo not given), the GI50 is 29.2 µM (inactive) with HOP-92; 36 µM (inactive) in the test on EKVX; 71.3 µM (inactive) in the test on NCI-H522; > 100 µM (inactive) in the test with NCI-H226; 68.4 µM (inactive) in the test with TK-10; > 100 µM (inactive) with SK-OV-3. The GI50 in the test with LOX IMVI was 80.7 µM (inactive); in the test on NCI-H23 it was > 100 µM (inactive); in the test with SF-295, > 100 µM (inactive); in the test with A549 it was > 100 µM (inactive); in the test with MDA-MB-435, > 100 µM (inactive); in the test with SN12C, 89.7 µM (inactive). Also, the GI50 in the test on SNB-19 was > 100 µM (inactive); with 786-0, > 100 µM (inactive); in the test on HCT-15, 79.3 µM; in the test on SR, 87.1 µM (inactive); with HL-60 it was 45.9 µM (inactive); in the test with SW-620 it was > 100 µM (inactive). Also, the GI50 with MOLT-4 was 50.8 µM (inactive); in the test on SK-MEL-2, > 100 µM (inactive).
With `c1ccc(/N=C(/Nc2ccccc2)N2CCCCC2)cc1`, the GI50 in the test on HOP-92 is 92 µM (inactive); with EKVX, > 100 µM (inactive); in the test with NCI-H522, 67.3 µM (inactive); with NCI-H226, > 100 µM (inactive); in the test with TK-10, > 100 µM (inactive); in the test with SK-OV-3, 74.1 µM (inactive). Also, the GI50 was 40.3 µM (inactive) in the test on LOX IMVI; > 100 µM (inactive) with NCI-H23; 54.7 µM (inactive) in the test on SF-295; > 100 µM (inactive) in the test on A549; 41.6 µM (inactive) with MDA-MB-435; > 100 µM (inactive) with SN12C. Besides, the GI50 with SNB-19 was > 100 µM (inactive); in the test on 786-0, > 100 µM (inactive); with HCT-15, > 100 µM; in the test on SR it was 73.6 µM (inactive); in the test with HL-60, 24.7 µM (inactive); in the test with SW-620 it was > 100 µM (inactive). Further, the GI50 in the test with MOLT-4 is 51.5 µM (inactive); with SK-MEL-2 it was > 100 µM (inactive).
`O=C(O)CCc1nc2c(n1Cc1ccccc1)C(=O)c1ccccc1C2=O`: the GI50 in the test with HOP-92 is 5.45 µM (inactive); in the test with EKVX, 78.2 µM (inactive); in the test with NCI-H522, 24.3 µM (inactive); with NCI-H226, > 100 µM (inactive); with TK-10 it was 34.1 µM (inactive); in the test on SK-OV-3 it was 69.3 µM (inactive). The GI50 is 27.2 µM (inactive) in the test on LOX IMVI; 30.3 µM (inactive) in the test with NCI-H23; 59.6 µM (inactive) in the test on SF-295; 50.4 µM (inactive) in the test on A549; 19.2 µM (inactive) with MDA-MB-435; 44.5 µM (inactive) with SN12C. Also, the GI50 in the test on SNB-19 was > 100 µM (inactive); in the test with 786-0 it was > 100 µM (inactive); with HCT-15 it was 48.8 µM; with SR, 51.4 µM (inactive); in the test on HL-60, 64 µM (inactive); with SW-620 it was 31.8 µM (inactive). The GI50 in the test with MOLT-4 was 68.9 µM (inactive); in the test on SK-MEL-2, 26 µM (inactive).
As to `Clc1ccc2ns[s+]c2c1`, the GI50 is 22.5 µM (inactive) in the test with HOP-92; 17.7 µM (inactive) in the test with EKVX; 11.1 µM (inactive) in the test on NCI-H522; > 89.7 µM (inactive) with NCI-H226; > 25.6 µM (inactive) in the test on TK-10; > 100 µM (inactive) in the test on SK-OV-3. Further, the GI50 was 1.29 µM (inactive) in the test with LOX IMVI; 11.7 µM (inactive) in the test on NCI-H23; 0.853 µM (active) in the test with SF-295; 5.24 µM (inactive) with A549; 0.334 µM (active) in the test with MDA-MB-435; 19.4 µM (inactive) with SN12C. Moreover, the GI50 in the test on SNB-19 is 29.2 µM (inactive); in the test on 786-0, 53.8 µM (inactive); with HCT-15, 0.33 µM; in the test with SR it was 1.34 µM (inactive); in the test on HL-60, 1.09 µM (active); with SW-620, 6.62 µM (inactive). Moreover, the GI50 in the test with MOLT-4 was 1.71 µM (inactive); in the test on SK-MEL-2 it was 9.35 µM (inactive).
As to `NC(Cc1c[nH]c(I)n1)C(=O)O` (stereo not given), the GI50 is 25.6 µM (inactive) with HOP-92; 42.7 µM (inactive) in the test on EKVX; 24.3 µM (inactive) with NCI-H522; > 100 µM (inactive) in the test on NCI-H226; > 100 µM (inactive) in the test with TK-10; > 100 µM (inactive) in the test on SK-OV-3. Further, the GI50 in the test on LOX IMVI is > 100 µM (inactive); in the test with NCI-H23, 81.3 µM (inactive); in the test with SF-295, > 100 µM (inactive); in the test on A549, > 100 µM (inactive); in the test on MDA-MB-435 it was > 100 µM (inactive); in the test on SN12C it was > 100 µM (inactive). Further, the GI50 is > 100 µM (inactive) in the test on SNB-19; > 100 µM (inactive) with 786-0; 46.2 µM in the test on HCT-15; 34.4 µM (inactive) in the test on SR; 2.27 µM (inactive) in the test on HL-60; 30 µM (inactive) with SW-620. The GI50 in the test with MOLT-4 and with SK-MEL-2 was > 100 µM (inactive) throughout.
